Measured values from PubChem BioAssay AID449764 (Southern Research Specialized Biocontainment Screening …, 2010).

Tested on: Mycobacterium tuberculosis H37Rv growth inhibition, no glycerol
Test: Mycobacterium tuberculosis H37Rv growth inhibition, no glycerol, confirmatory dose response (AID 449764);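 further: growth read after 7 days of incubation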
Conditions: for IC90: measured here: IC90 growth inhibition

| SMILES | IC50 [µM] | IC90 [µM] |
| --- | --- | --- |
| CCN(CC)Cc1nc2c(c(=O)[nH]1)C(CC)(CC)Cc1ccccc1-2 | 12.7 | 21.1 |
| COc1ccc(NCc2nnc(SCC(=O)c3ccc(OC)cc3)o2)cc1 | 20.8 | 22.9 |
| Cc1ccc(-c2noc(-c3cc4ccccc4oc3=O)n2)cc1 | 11.4 | > 100 |
| Nc1nc(CN2CCN(c3ccccc3F)CC2)nc(N2CCCc3ccccc32)n1 | 12 | 24.2 |
| c1ccc(Nc2nc(N3CCCCC3)nc(N3CCNCC3)n2)cc1 | 44.4 | 69.4 |
| COc1ccc2nc(NC(=O)C3CCCN(S(=O)(=O)c4cccs4)C3)sc2c1 (stereo unspecified) | 14.9 | 24.2 |
| COc1ccc2cc1Oc1ccc(cc1)C[C@H]1c3c(cc(OC)c4c3Oc3c(ccc5c3[C@H](C2)N(C)CC5)O4)CCN1C | 5.54 | 6.24 |
| COc1nn(-c2ccccc2)c(=O)c(Cl)c1Cl | 10.3 | 13.6 |
| CCCCCNc1nc(N2CCCC2)c2c(c1C#N)CCN(C)C2 |  | > 100 |
| O=[N+]([O-])c1ccc(N2CCCCC2)s1 | 13.7 | 18.5 |
| C=CCC1(CC=C)CCCN1C(=O)c1cc(COc2ccc(-n3cncn3)cc2)on1 | 47.3 | 57.4 |
| CCCCn1c(=O)c(C(=O)Nc2ncccc2C)c(O)c2ccccc21 | 17 | 22.1 |
| C/C(=N\NC(=O)c1ccc(O)cc1)c1ccc2c(c1)Nc1ccccc1S2 | 50.2 | 95.6 |
| CCc1ccc(N=C2NC(=O)/C(=C/c3cc(OC)c(O)c(OC)c3)S2)cc1 | 41.1 | > 100 |
| Cc1ccc(S(=O)(=O)N2CCC(C(=O)OCc3ccccc3)CC2)cc1C | 46.5 | 52.2 |
| CON(C)c1nc(C2CCCCC2)c2cc(C)ccc2n1 | 57.4 | 68.2 |
| COc1ccc(-c2oc3cccnc3c2/C=C/c2ccc(OC)c(OC)c2)cc1 | 56.6 | > 100 |
| CC(C)C(=O)N1CCC2(CC1)Oc1ccc(Cl)cc1C(=O)C21CC(c2ccccc2)=NO1 (stereo unspecified) | 59.4 | > 100 |
| CCCc1cc(=O)n2[nH]c(C)c(-c3ccc(Cl)cc3)c2n1 | 11.5 | 13.2 |
| O=C(Nc1ccc2nsnc2c1)NC1CCCCC1 | 44.3 | > 100 |
| O=[N+]([O-])c1cn(-c2nc(-c3ccco3)cc(C(F)(F)F)n2)cn1 | 3.79 | > 100 |
| C/C(=N\Nc1nc2c(s1)CCCC2)c1ccccc1 | 30.6 | 47.2 |

| SMILES | IC50 [µM] | IC90 [µM] |
| --- | --- | --- |
| COc1cc(-c2ccc3oc(-c4ccsc4)cc(=O)c3c2)cc(OC)c1OC | 38.1 | 53.6 |
| C=C1C(=O)[C@@]23[C@H](O)C[C@@H]4C(C)(C)CC[C@H](O)[C@@]4(C)[C@@H]2CC[C@@H]1[C@H]3O | 8.35 | 11.3 |
| Cc1cc(NC2CCCCC2)nc(-c2ccccc2O)n1 | 35.9 | 50.2 |
| Cc1c(Cl)cccc1NC(=O)CN1CCC(C(O)(c2ccccc2)c2ccccc2)CC1 | 45.1 | > 100 |
| C=CCN(CC=C)C(=S)NC(=O)c1ccc(-c2ccccc2)cc1 | 13.6 | 22.4 |
| NNc1nc2ccc(Cl)cc2s1 | 62.4 | 70.6 |
| COc1ccc(-c2cc3nc(CCl)[nH]c(=O)c3s2)cc1 | 5.94 | 6.45 |
| C=C(CCC(=O)c1ccccc1)C(=O)c1ccccc1 | 18 | 25.1 |
| CN1CCN(C(=O)/C=C/c2cn(-c3ccccc3)nc2-c2ccc3c(c2)OCCO3)CC1 |  | > 100 |
| CC(NC(=O)CCl)c1ccc(Cl)c(Cl)c1 (stereo unspecified) | 4.1 | 7.74 |
| Cc1cccc(/C=C2/S/C(=N/N=C3\CC4CCC3(C)C4(C)C)NC2=O)c1 (stereo unspecified) | 25.6 | > 100 |
| CN(C)CCCN1c2ccccc2Sc2ccc(Cl)cc21 | 46.6 | 60 |
| CCC(=O)Nc1nc2ccccc2n1Cc1ccc(Cl)cc1 | < 0.2 | 4.27 |
| Cc1c(CN(C)C)c2c(n1Cc1ccccc1)C(=O)c1ccc(Br)cc1-2 | 24 | 27.8 |
| O=C(CCc1ccc(Oc2cc([N+](=O)[O-])cc([N+](=O)[O-])c2)cc1)N1CCCCCC1 | 14.9 | 22.9 |
| O=c1c2c(-c3ccccc3)csc2ncn1/N=C/c1ccc(O)c([N+](=O)[O-])c1 | 37.1 | 59 |
| CCCc1cc(C(N)=S)ccn1 | 17.1 | > 100 |
| CC(C)C[C@H](NC(=O)c1nc[nH]c1C(=O)NC1CCN(C(=O)OC(C)(C)C)CC1)C(=O)OCc1ccccc1 | 21.8 | 29.6 |
| NC(=O)c1cccc(-c2cc(Nc3ccc(OC(F)(F)F)cc3)ncn2)c1 | 24.5 | > 25 |
| CN(CC(=O)Nc1ccc(OC(F)(F)F)cc1)C(=O)/C=C/c1cc2c(cc1[N+](=O)[O-])OCO2 | 34.5 | 40.5 |
| CCOC(=O)c1c(C)[nH]c(N=Nc2ccc(OC)cc2)c1C | 11.3 | > 25 |
| COc1cc2c(cc1OC)C1(Nc3c-2c(-c2ccccc2)nn3-c2ccccc2)C(=O)Nc2ccccc21 (stereo unspecified) | 80.9 | > 100 |
